# Results taken from ChEMBL document CHEMBL3352657 (J Med Chem, 2014).
# The source made the active and inactive calls. No cut-off for these calls is given here.
# Key:
# [1] = target: Neurotensin receptor type 1 (Rattus norvegicus, UniProt P20789); test: Displacement of [125I]neurotensin from rat NTS1 receptor expressed in CHO-K1 cells by competitive binding assay; type: cell-based
# [2] = target: T1, Neurotensin receptor type 2 (Rattus norvegicus, UniProt Q63384); test: Agonist activity at rat NTS2 receptor expressed in CHO-K1 cells assessed as calcium mobilization by FLIPR assay; type: functional, cell-based
# T1 sequence (Q63384 whole entry): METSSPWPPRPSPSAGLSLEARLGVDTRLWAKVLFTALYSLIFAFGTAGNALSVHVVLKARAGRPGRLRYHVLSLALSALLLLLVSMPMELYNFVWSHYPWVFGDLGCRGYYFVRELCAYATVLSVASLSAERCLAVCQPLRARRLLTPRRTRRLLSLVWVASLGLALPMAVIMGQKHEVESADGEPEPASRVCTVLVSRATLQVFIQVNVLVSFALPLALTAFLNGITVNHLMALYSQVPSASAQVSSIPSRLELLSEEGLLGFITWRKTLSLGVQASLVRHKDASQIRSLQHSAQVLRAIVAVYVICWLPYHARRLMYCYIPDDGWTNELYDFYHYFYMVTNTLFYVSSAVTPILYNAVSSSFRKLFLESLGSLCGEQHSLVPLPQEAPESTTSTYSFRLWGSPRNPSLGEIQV
# [3] = target: T1, Neurotensin receptor type 2; test: Displacement of [125I]neurotensin from rat NTS2 receptor expressed in CHO-K1 cells by competitive binding assay; type: cell-based
# [4] = target: T1, Neurotensin receptor type 2; test: Antagonist activity at rat NTS2 receptor expressed in CHO-K1 cells assessed as inhibition of SR142948a-induced calcium mobilization by FLIPR assay; type: functional, cell-based
# [5] = target: Neurotensin receptor type 1 (Rattus norvegicus) (UniProt P20789); test: Agonist activity at rat NTS1 receptor expressed in CHO-K1 cells assessed as calcium mobilization by FLIPR assay; type: functional, cell-based
# Neurotensin receptor type 1 (Rattus norvegicus), sequence (P20789 whole entry): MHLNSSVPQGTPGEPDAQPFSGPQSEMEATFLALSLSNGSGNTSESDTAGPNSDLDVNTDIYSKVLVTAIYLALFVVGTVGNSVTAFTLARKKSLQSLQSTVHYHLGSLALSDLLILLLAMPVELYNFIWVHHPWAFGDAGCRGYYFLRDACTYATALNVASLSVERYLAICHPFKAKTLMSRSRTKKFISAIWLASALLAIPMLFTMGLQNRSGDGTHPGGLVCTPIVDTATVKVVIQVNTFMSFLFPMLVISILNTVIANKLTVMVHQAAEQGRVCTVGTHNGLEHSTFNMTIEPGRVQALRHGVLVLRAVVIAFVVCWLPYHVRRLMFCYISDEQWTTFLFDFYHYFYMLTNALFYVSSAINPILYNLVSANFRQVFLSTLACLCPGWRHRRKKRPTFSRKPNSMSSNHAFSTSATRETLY
# [6] = target: Neurotensin receptor type 1 (Rattus norvegicus) (UniProt P20789); test: Antagonist activity at rat NTS1 receptor expressed in CHO-K1 cells assessed as inhibition of […]-induced calcium mobilization by FLIPR assay; type: functional, cell-based
# Neurotensin receptor type 1, sequence (P20789 whole entry): as above
Compound,Ki [1],EC50 ([2]; read-out: EC50),Ki [3],IC50 [4],EC50 ([2]; cho-k1),Activity [5],inhibition [6]
COc1cccc(OC)c1-c1cc(C(=O)NC2(C(=O)O)C3CC4CC(C3)CC2C4)nn1-c1ccc(C(=O)N(C)CCCN(C)C)cc1C(C)C (stereo not drawn),1.4 nM,22 nM,5.8 nM,–,–,–,–
Cc1ccc(S(=O)(=O)Nc2ccc3c(c2)c(C(=O)C(F)(F)F)cn3CC(=O)N[C@@H](CC(C)C)C(=O)O)cc1,> 30000 nM,–,202 nM,38 nM,Not Active,–,–
Cc1ccc(S(=O)(=O)Nc2ccc3c(ccn3CC(=O)N[C@@H](CC(C)C)C(=O)O)c2)cc1,> 30000 nM,–,1500 nM,3320 nM,Not Active,inactive,inactive
